According to patent publication US6849598B1, “Therapeutic compositions comprising bactericidal/permeability-increasing (BPI) protein products” (XOMA, priority 1995, dated 2005):
≈ marks a conversion by molar mass, not a printed value. Where two headings read alike, the source gives them in different places. Each block holds one compound with its values, some of them ahead of it.

Columns and labels:
[1] = test system: A. baumannii; test: Antibiotic susceptibility (MIC, Sensititre Trays) with rBPI21 poloxamer formulations; assay type: cell-based; details: for MIC: Acinetobacter baumannii, read-out: Minimum Inhibitory Concentration
Protocol: (§1) The effect of therapeutic compositions of rBPI21 formulated with poloxamer, with or without EDTA, was evaluated on the antibiotic susceptibility of the multiple drug resistant A. baumannii, S. pneumoniae, E. faecium and P. aeruginosa organisms of Example 5. Therapeutic compositions were prepared containing 2 mg/mL rBPI21, (5 mM sodium citrate, 150 mM NaCl) with a 0.2% (w/v) concentration of PLURONIC F68, P103, P104, P105 or P123. The effect on the antibiotic susceptibility of the organisms was determined in Mueller-Hinton Broth plus Cations (CSMHB, Remel), or 40% pooled human serum in CSMHB (Sigma, St. Louis, Mo.), as follows.
(§2) Isolated colonies of the organism from overnight cultures were suspended in Microscan® Inoculum Water to a concentration equivalent to a 0.5 McFarland Standard (approximately 1×10^8 CFU/ml), determined using a Microscan® turbidimeter. Aliquots were transferred to either CSMHB or 40% pooled human serum in CSMHB. Each tube contained either a final concentration of 16 μg/mL rBPI21 or an equivalent volume of control buffer. Minimal inhibitory concentrations (MIC) for each antibiotic tested, i.e. the lowest concentration of antibiotic which inhibits visible growth, were determined using gram-negative (MB and MC) and gram-positive (MA) Sensititre Trays (Radiometer America, Westlake, Ohio), which allow for the rapid and simultaneous survey of a broad spectrum of standard antibiotics. Any other antimicrobial panel systems known in the art, such as the Microscan® (Dade Microscan, Sacramento, Calif.), Pasco (DIFCO, Detroit, Mich.) and Alamar (Alamar, Sacramento, Calif.) systems, may alternatively be used to assay for antibiotic susceptibility.
(§3) Tables 12-15 below display a summary of the results of the antibiotic screening panels, reported for each strain tested as the MIC of the tested antibiotics in the presence of the indicated rBPI21 therapeutic composition. The antibiotic susceptibility standards (interpretation of an MIC as clinically resistant (R), intermediate (I) or susceptible (S) according to NCCLS standards) applicable to the organism tested appear in superscript next to the MIC.

[2] = test system: P. aeruginosa; test: as above; assay type: cell-based; details: for MIC: Pseudomonas aeruginosa, read-out: Minimum Inhibitory Concentration
Protocol: as §1, §2, §3

[3] = CSMHB, 16 μg/mL rBPI21 with F68
[4] = CSMHB, 16 μg/mL rBPI21 with P103
[5] = CSMHB, 16 μg/mL rBPI21 with P104
[6] = CSMHB, 16 μg/mL rBPI21 with P105
[7] = CSMHB, 16 μg/mL rBPI21 with P123
[8] = Serum, 16 μg/mL rBPI21 with F68
[9] = Serum, 16 μg/mL rBPI21 with P103
[10] = Serum, 16 μg/mL rBPI21 with P104
[11] = Serum, 16 μg/mL rBPI21 with P105
[12] = Serum, 16 μg/mL rBPI21 with P123

- MIC [1, 3]: 32 µg/mL (≈ 58.5 µM)
- MIC [1, 4]: < 4 µg/mL
- MIC [1, 5]: < 4 µg/mL
- MIC [1, 6]: < 4 µg/mL
- MIC [1, 7]: < 4 µg/mL
- MIC ([1]; CSMHB, Control (no BPI)): 16 µg/mL (≈ 29.3 µM)
- MIC [1, 8]: 32 µg/mL (≈ 58.5 µM)
- MIC [1, 9]: 16 µg/mL (≈ 29.3 µM)
- MIC [1, 10]: 16 µg/mL (≈ 29.3 µM)
- MIC [1, 11]: 16 µg/mL (≈ 29.3 µM)
- MIC [1, 12]: 16 µg/mL (≈ 29.3 µM)
- MIC ([1]; Serum, Control (no BPI)): > 32 µg/mL
- susceptibility interpretation of MIC (superscript) [1, 3]: R
- susceptibility interpretation of MIC (superscript) [1, 4]: S
- susceptibility interpretation of MIC (superscript) [1, 5]: S
- susceptibility interpretation of MIC (superscript) [1, 6]: S
- susceptibility interpretation of MIC (superscript) [1, 7]: S
- susceptibility interpretation of MIC (superscript) ([1]; CSMHB, Control (no BPI)): I
- susceptibility interpretation of MIC (superscript) [1, 8]: R
- susceptibility interpretation of MIC (superscript) [1, 9]: I
- susceptibility interpretation of MIC (superscript) [1, 10]: I
- susceptibility interpretation of MIC (superscript) [1, 11]: I
- susceptibility interpretation of MIC (superscript) [1, 12]: I
- susceptibility interpretation of MIC (superscript) ([1]; Serum, Control (no BPI)): R
SMILES: CC(C)(O/N=C(\C(=O)N[C@@H]1C(=O)N2C(C(=O)[O-])=C(C[n+]3ccccc3)CS[C@H]12)c1csc(N)n1)C(=O)O [Ceftazidime]

- susceptibility interpretation of MIC (superscript) [2, 3]: I
- susceptibility interpretation of MIC (superscript) [2, 4]: I
- susceptibility interpretation of MIC (superscript) [2, 5]: R
- susceptibility interpretation of MIC (superscript) [2, 6]: I
- susceptibility interpretation of MIC (superscript) [2, 7]: R
- susceptibility interpretation of MIC (superscript) ([2]; CSMHB, Control (no BPI)): R
- MIC [2, 3]: 32 µg/mL (≈ 83.5 µM)
- MIC [2, 4]: 16 µg/mL (≈ 41.7 µM)
- MIC [2, 5]: 128 µg/mL (≈ 334 µM)
- MIC [2, 6]: 32 µg/mL (≈ 83.5 µM)
- MIC [2, 7]: 128 µg/mL (≈ 334 µM)
- MIC ([2]; CSMHB, Control (no BPI)): > 128 µg/mL
- MIC [2, 8]: > 128 µg/mL
- MIC [2, 9]: 16 µg/mL (≈ 41.7 µM)
- MIC [2, 10]: 128 µg/mL (≈ 334 µM)
- MIC [2, 11]: 16 µg/mL (≈ 41.7 µM)
- MIC [2, 12]: 16 µg/mL (≈ 41.7 µM)
- MIC ([2]; Serum, Control (no BPI)): 128 µg/mL (≈ 334 µM)
- susceptibility interpretation of MIC (superscript) [2, 8]: R
- susceptibility interpretation of MIC (superscript) [2, 9]: I
- susceptibility interpretation of MIC (superscript) [2, 10]: R
- susceptibility interpretation of MIC (superscript) [2, 11]: I
- susceptibility interpretation of MIC (superscript) [2, 12]: I
- susceptibility interpretation of MIC (superscript) ([2]; Serum, Control (no BPI)): R
SMILES: CO/N=C(\C(=O)N[C@@H]1C(=O)N2C(C(=O)O)=CCS[C@H]12)c1csc(N)n1 [Ceftizoxime]

- MIC [1, 3]: > 128 µg/mL
- MIC [1, 4]: < 1 µg/mL
- MIC [1, 5]: < 1 µg/mL
- MIC [1, 6]: < 1 µg/mL
- MIC [1, 7]: < 1 µg/mL
- MIC ([1]; CSMHB, Control (no BPI)): 128 µg/mL (≈ 231 µM)
- MIC [1, 8]: > 128 µg/mL
- MIC [1, 9]: > 128 µg/mL
- MIC [1, 10]: > 128 µg/mL
- MIC [1, 11]: > 128 µg/mL
- MIC [1, 12]: > 128 µg/mL
- MIC ([1]; Serum, Control (no BPI)): > 128 µg/mL
- susceptibility interpretation of MIC (superscript) [1, 3]: R
- susceptibility interpretation of MIC (superscript) [1, 4]: S
- susceptibility interpretation of MIC (superscript) [1, 5]: S
- susceptibility interpretation of MIC (superscript) [1, 6]: S
- susceptibility interpretation of MIC (superscript) [1, 7]: S
- susceptibility interpretation of MIC (superscript) ([1]; CSMHB, Control (no BPI)): R
- susceptibility interpretation of MIC (superscript) [1, 8]: R
- susceptibility interpretation of MIC (superscript) [1, 9]: R
- susceptibility interpretation of MIC (superscript) [1, 10]: R
- susceptibility interpretation of MIC (superscript) [1, 11]: R
- susceptibility interpretation of MIC (superscript) [1, 12]: R
- susceptibility interpretation of MIC (superscript) ([1]; Serum, Control (no BPI)): R
- susceptibility interpretation of MIC (superscript) [2, 3]: I
- susceptibility interpretation of MIC (superscript) [2, 4]: S
- susceptibility interpretation of MIC (superscript) [2, 5]: R
- susceptibility interpretation of MIC (superscript) [2, 6]: I
- susceptibility interpretation of MIC (superscript) [2, 7]: R
- susceptibility interpretation of MIC (superscript) ([2]; CSMHB, Control (no BPI)): R
- MIC [2, 3]: 32 µg/mL (≈ 57.7 µM)
- MIC [2, 4]: 8 µg/mL (≈ 14.4 µM)
- MIC [2, 5]: 128 µg/mL (≈ 231 µM)
- MIC [2, 6]: 32 µg/mL (≈ 57.7 µM)
- MIC [2, 7]: 128 µg/mL (≈ 231 µM)
- MIC ([2]; CSMHB, Control (no BPI)): > 128 µg/mL
- MIC [2, 8]: > 128 µg/mL
- MIC [2, 9]: 16 µg/mL (≈ 28.9 µM)
- MIC [2, 10]: 128 µg/mL (≈ 231 µM)
- MIC [2, 11]: 16 µg/mL (≈ 28.9 µM)
- MIC [2, 12]: 32 µg/mL (≈ 57.7 µM)
- MIC ([2]; Serum, Control (no BPI)): 128 µg/mL (≈ 231 µM)
- susceptibility interpretation of MIC (superscript) [2, 8]: R
- susceptibility interpretation of MIC (superscript) [2, 9]: I
- susceptibility interpretation of MIC (superscript) [2, 10]: R
- susceptibility interpretation of MIC (superscript) [2, 11]: I
- susceptibility interpretation of MIC (superscript) [2, 12]: I
- susceptibility interpretation of MIC (superscript) ([2]; Serum, Control (no BPI)): R
SMILES: CO/N=C(\C(=O)N[C@@H]1C(=O)N2C(C(=O)O)=C(CSc3nc(=O)c(=O)[nH]n3C)CS[C@H]12)c1csc(N)n1 [Ceftriaxone]

SMILES: O=C(N[C@H](CO)[C@H](O)c1ccc([N+](=O)[O-])cc1)C(Cl)Cl [Chloramphenicol]
- MIC [1, 3]: 1 µg/mL (≈ 3.09 µM)
- MIC [1, 4]: < 0.5 µg/mL
- MIC [1, 5]: 1 µg/mL (≈ 3.09 µM)
- MIC [1, 6]: < 0.5 µg/mL
- MIC [1, 7]: < 0.5 µg/mL
- MIC ([1]; CSMHB, Control (no BPI)): > 4 µg/mL
- MIC [1, 8]: > 4 µg/mL
- MIC [1, 9]: 2 µg/mL (≈ 6.19 µM)
- MIC [1, 10]: 4 µg/mL (≈ 12.4 µM)
- MIC [1, 11]: > 4 µg/mL
- MIC [1, 12]: > 4 µg/mL
- MIC ([1]; Serum, Control (no BPI)): > 4 µg/mL
- susceptibility interpretation of MIC (superscript) [1, 3]: S
- susceptibility interpretation of MIC (superscript) [1, 4]: S
- susceptibility interpretation of MIC (superscript) [1, 5]: S
- susceptibility interpretation of MIC (superscript) [1, 6]: S
- susceptibility interpretation of MIC (superscript) [1, 7]: S
- susceptibility interpretation of MIC (superscript) ([1]; CSMHB, Control (no BPI)): R
- susceptibility interpretation of MIC (superscript) [1, 8]: R
- susceptibility interpretation of MIC (superscript) [1, 9]: S
- susceptibility interpretation of MIC (superscript) [1, 10]: R
- susceptibility interpretation of MIC (superscript) [1, 11]: R
- susceptibility interpretation of MIC (superscript) [1, 12]: R
- susceptibility interpretation of MIC (superscript) ([1]; Serum, Control (no BPI)): R
- susceptibility interpretation of MIC (superscript) [2, 3]: R
- susceptibility interpretation of MIC (superscript) [2, 4]: I
- susceptibility interpretation of MIC (superscript) [2, 5]: R
- susceptibility interpretation of MIC (superscript) [2, 6]: I
- susceptibility interpretation of MIC (superscript) [2, 7]: I
- susceptibility interpretation of MIC (superscript) ([2]; CSMHB, Control (no BPI)): R
- MIC [2, 3]: > 32 µg/mL
- MIC [2, 4]: 16 µg/mL (≈ 49.5 µM)
- MIC [2, 5]: > 32 µg/mL
- MIC [2, 6]: 16 µg/mL (≈ 49.5 µM)
- MIC [2, 7]: 16 µg/mL (≈ 49.5 µM)
- MIC ([2]; CSMHB, Control (no BPI)): > 32 µg/mL
- MIC [2, 8]: > 32 µg/mL
- MIC [2, 9]: 16 µg/mL (≈ 49.5 µM)
- MIC [2, 10]: 16 µg/mL (≈ 49.5 µM)
- MIC [2, 11]: 16 µg/mL (≈ 49.5 µM)
- MIC [2, 12]: 16 µg/mL (≈ 49.5 µM)
- MIC ([2]; Serum, Control (no BPI)): > 32 µg/mL
- susceptibility interpretation of MIC (superscript) [2, 8]: R
- susceptibility interpretation of MIC (superscript) [2, 9]: I
- susceptibility interpretation of MIC (superscript) [2, 10]: I
- susceptibility interpretation of MIC (superscript) [2, 11]: I
- susceptibility interpretation of MIC (superscript) [2, 12]: I
- susceptibility interpretation of MIC (superscript) ([2]; Serum, Control (no BPI)): R
